Assay results reported in patent publication US6743811B2, “Oxazalidinone compounds and methods of preparation and use thereof” (Pharmacia & Upjohn Company, priority 1999, dated 2004).

Legend:
[1] = test system: Staphylococcus aureus; experiment: MIC by microdilution method (NCCLS), S. aureus; type: cell-based
Description: Exemplary compounds of formula 1 are as follows. MIC refers to the minimal inhibitory concentration which was determined as described in Example 37.
Minimum inhibitor concentrations (MICs) were determined using the microdilution method according to National Committee for Clinical Laboratory Standards (NCCLS) procedures. Compounds were suspended in DMSO at 10 mg/ml and stored at −20° C. The range of concentrations tested was 64-0.06 μg/ml using two-fold dilutions.
To prepare the inoculum, bacterial cultures were grown overnight at 35° C. on agar plates and each organism was resuspended in 1 ml saline to obtain a 0.5 McFarlands density standard. This was subsequently diluted 1:200 into Mueller-Hinton Broth (MHB) or Haemophilus Test Medium (HTM; for Haemophilus) providing a final inoculum size of 5*10^5 cfu/ml. After inoculation with the bacteria, assay plates were incubated at 35° C. for 18-24 h. […] Gram positive and gram negative strains used included Staphylococcus aureus, Enterococcus faecium, Enterococcus faecalis, Streptococcus pneumoniae, Haemophilus influenzae, Pseudomonas aeruginosa, Escherichia coli, and E. coli (acr)—an efflux pump mutant.

SMILES: CC(=S)NC[C@H]1CN(c2ccc(C(=O)Oc3c(F)c(F)c(F)c(F)c3F)c(F)c2)C(=O)O1
- melting point: 163 to 164 °C

SMILES: CC(=S)NC[C@H]1CN(c2ccc([S+](C)[O-])c(F)c2)C(=O)O1 (stereo partly drawn)
- melting point: 158 to 160 °C

SMILES: CC(=S)NC[C@H]1CN(c2ccc(NC(=O)c3csnn3)c(F)c2)C(=O)O1
- melting point: 203 to 204 °C

SMILES: CC(=S)NC[C@H]1CN(c2ccc(SCCCl)c(F)c2)C(=O)O1
- melting point: 134 to 135 °C

SMILES: CC(=S)NC[C@H]1CN(c2ccc(N(C)C=S)c(F)c2)C(=O)O1
- melting point: 103 to 104 °C

SMILES: CC(=S)NC[C@H]1CN(c2ccc(C(=O)NN)c(F)c2)C(=O)O1
- melting point: 177 °C

SMILES: CC(=S)NC[C@H]1CN(c2ccc(C(=O)O)c(F)c2)C(=O)O1
- melting point: 180 to 182 °C

SMILES: CC(=S)NC[C@H]1CN(c2ccc(N)c(F)c2)C(=O)O1
- melting point: 137 to 188 °C

SMILES: CC(=S)NC[C@H]1CN(c2ccc(C3=NOCCO3)c(F)c2)C(=O)O1
- melting point: 166 to 167 °C

SMILES: CC(=S)NC[C@H]1CN(c2ccc(N(C)S(C)(=O)=O)c(F)c2)C(=O)O1
- MIC (minimal inhibitory concentration) [1]: 4-8 Tg/mL

SMILES: CC(=O)NC[C@H]1CN(c2ccc(NC(=O)c3csnn3)c(F)c2)C(=O)O1
- melting point: 233 °C

SMILES: CC[S+]([O-])c1ccc(N2C[C@H](CNC(C)=S)OC2=O)cc1F (stereo partly drawn)
- melting point: 138 to 139 °C

SMILES: COC(=O)c1ccc(N2C[C@H](CNC(C)=S)OC2=O)cc1F
- melting point: 152 to 154 °C

SMILES: CC(=O)Nc1ccc(N2C[C@H](CNC(C)=S)OC2=O)cc1F
- melting point: 200 to 201 °C

SMILES: CC(=S)NC[C@H]1CN(c2ccc(Sc3ncc([N+](=O)[O-])s3)c(F)c2)C(=O)O1
- melting point: 116 to 117 °C

SMILES: CC(=S)NC[C@H]1CN(c2ccc(S(C)(=O)=O)c(F)c2)C(=O)O1
- melting point: 177 °C

SMILES: CSc1ccc(N2C[C@H](CNC(C)=S)OC2=O)cc1F
- melting point: 130 to 131 °C

SMILES: CNC(=O)c1ccc(N2C[C@H](CNC(C)=S)OC2=O)cc1F
- melting point: 176 to 177 °C

SMILES: CC(=S)NC[C@H]1CN(c2ccc([S+]([O-])CCF)c(F)c2)C(=O)O1 (stereo partly drawn)
- melting point: 161 °C

SMILES: CC(=S)NC[C@H]1CN(c2ccc(NC(=O)c3ccc([N+](=O)[O-])o3)c(F)c2)C(=O)O1
- melting point: 188 °C

SMILES: CSc1ccc(N2C[C@H](CNC(C)=S)OC2=O)cc1F [drawing 18]
- MIC (minimal inhibitory concentration) [1]: 4-8 Tg/mL
